Entries after “also recorded” stand apart in the source; their conditions may differ.
What was measured:
[1] = system: p53; test: Western blot for p53 in MCF7 cells treated with oligonucleotides; assay type: cell-based, human; settings: MCF7 cells; oligonucleotide 50 nM; 24 hours (FIG. 2)
[2] = system: p53; test: Western blot for p53 and downstream targets in MCF7 cells treated with peptides; assay type: cell-based, human; settings: for p53 expression (Western blot) / protein expression of p53 and downstream targets p21 and MDM2 (Western blot) / p53 and p21 expression after low-dose doxorubicin treatment (Western blot) / doxorubicin-mediated p53 and p21 upregulation (Western blot) / expression of p53 and downstream targets with low-dose doxorubicin (Western blot) / expression of p53 and downstream targets p21 and MDM2 (Western blot): MCF7 cells; for p53 expression (Western blot): 300 nM peptide with 6 μM PEP1, 24 hours (FIG. 31B); for protein expression of p53 and downstream targets p21 and MDM2 (Western blot): 300 nM peptide with 6 μg PEP1 (20:1 PEP1 to peptide), 18 hours (FIG. 1A); for p53 and p21 expression after low-dose doxorubicin treatment (Western blot): 375 nM peptide with 7.5 μM PEP1, 6.25 ng/mL doxorubicin 18 hours (FIG. 34H); for doxorubicin-mediated p53 and p21 upregulation (Western blot): 375 nM peptide with (20:1) plus 6.25 ng/mL doxorubicin, 18 hours (FIG. 1C); for expression of p53 and downstream targets with low-dose doxorubicin (Western blot): complexes of CPPs and peptide plus doxorubicin 6.25 ng/mL (FIG. 19B); for expression of p53 and downstream targets p21 and MDM2 (Western blot): complexes with PEP1 (FIG. 13B)
[3] = system: p53; test: Western blot for p53 and downstream targets in RKO cells treated with peptides; assay type: cell-based, human; settings: RKO cells; for p53 expression (Western blot): 300 nM peptide with 6 μM PEP1, 24 hours (FIG. 31A); for p53 and p21 expression after low-dose doxorubicin treatment (Western blot) / p53 protein expression compared to Pep8 (Western blot): 375 nM peptide with 7.5 μM PEP1; for p53 and p21 expression after low-dose doxorubicin treatment (Western blot): 6.25 ng/mL doxorubicin 18 hours (FIG. 34G); for expression of p53 and downstream targets with low-dose doxorubicin (Western blot): complexes of CPPs and peptide plus doxorubicin 6.25 ng/mL (FIG. 19A); for expression of p53 (Western blot): peptide complexed with PEP1 (FIG. 13A); for p53 protein expression compared to Pep8 (Western blot): 18 hours (FIG. 37A)
[4] = system: MCF7 cells; test: MCF7 cell colony formation assay (peptides); assay type: cell-based, human; settings: for MCF7 cell colony formation: 375 nM peptide with 7.5 μg PEP1 (20:1) (FIG. 1B); for inhibition of colony formation by low-dose doxorubicin: MCF7 cells, 375 nM peptide with 7.5 μg PEP1 (20:1) plus 3.125 ng/mL doxorubicin (FIG. 1D); for colony formation in MCF7 cells: complexes of peptide and PEP1 (FIG. 18)
Method: In order to test the effect of the RBM38 and eIF4E peptides on cancer cell colony formation, MCF7 cells were seeded in 6-well plates at a density of 1×10^3 cells per well. The following day, cells were treated with peptides. In order to form stable complexes with PEP1, 100 μl of serum-free DMEM was added to individual Eppendorf tubes. Control (SEQ ID NO:11), RBM38, and eIF4E peptides were added at a concentration of 375 nM and then 7.5 μg of PEP1 was added to each peptide (20:1). The complexes were incubated for 20 minutes at room temperature and then added dropwise to cells. Cell media was changed every three days until colonies were visible. The cells were fixed and then stained with crystal violet.
In order to test the effect of a combination treatment comprising peptides of the present invention and a chemotherapeutic agent on cancer cell colony formation, MCF7 cells were seeded in 6-well plates at a density of 1×10^3 cells per well. The following day, cells were treated with peptides. In order to form stable complexes with PEP1, 100 μL of serum-free DMEM was added to individual Eppendorf tubes. Control, RBM38, eIF4E, and peptide-8 peptides were added at a concentration of 375 nM and then 7.5 μg of PEP1 was added to each peptide (20:1). The complexes were incubated for 20 minutes at room temperature and then added dropwise to cells. 20 minutes after addition of peptide complexes, 3.125 ng/mL doxorubicin was added to the cells. Cell media was changed every three days until colonies were visible. The cells were fixed and then stained with crystal violet.
For the experiments shown in FIG. 34C, MCF7 cells were seeded on a 6-well plate at a seed density of 1×10^3 cells per well. The following day the cells were treated with 5 μM Pen-Ctrl or 5 μM Pen-Pep23. The following day, 6.25 ng/mL doxorubicin was added to the cells for 48 hours. Subsequently, the cell media was changed every 3 days until colonies were visible. The cells were fixed and stained with crystal violet.

[5] = system: tumor cell colony formation; test: Tumor cell colony formation assay, cell line not stated (FIGS. 13C, 20D); assay type: cell-based; settings: complexes with PEP1 (FIG. 13C)
[6] = system: U20S; test: U20S cell colony formation assay (FIG. 18); assay type: cell-based, human; settings: complexes of peptide and PEP1 (FIG. 18)
[7] = system: MIA-PaCa-2 pancreatic cancer cells; test: MIA-PaCa-2 cell colony formation assay (peptides); assay type: cell-based, human; settings: complexes of peptide and PEP1 (FIG. 18)
Source text: […] […] After colonies formed they were fixed (i.e., using 7:1 MeOH:glacial acetic acid) and stained with crystal violet.

[8] = system: RKO cells; test: RKO cell colony formation assay (oligonucleotides); assay type: cell-based; settings: 5 μM oligonucleotide for 24 hours; versus M3 control (FIG. 30)
Source text: Another strategy is to use oligonucleotides to block the interaction between RBM38 and the 3′ untranslated region (UTR) of p53 in order to modulate p53 translation (FIG. 26). To this end, a region of the p53 3′ UTR where RBM38 interacts (FIG. 27) was identified (SEQ ID NO:15) and several oligonucleotides having complementarity to this sequence (e.g., SEQ ID NOS:16-21) were designed.

AAAGAAAAAAGAAAAAAAAAAAAAAAAAA (listed as DNA, chemistry not given here) [18T-AS-29]
level of p53 (Western blot) [1]: level of p53 was increased

IGYQSHADTATKSGSTTKNRFVV [eIF4E]
p53 expression (Western blot) [2]: able to increase p53 expression | protein expression of p53 and downstream targets p21 and MDM2 (Western blot) [2]: increased protein expression of p53 and the downstream targets p21 and mouse double minute 2 homolog (MDM2); also recorded: increasing p53 protein levels; also recorded: induced p53 and downstream targets p21 and MDM2 | p53 and p21 expression after low-dose doxorubicin treatment (Western blot) [2]: further increased p53 and p21 expression | doxorubicin-mediated p53 and p21 upregulation (Western blot) [2]: enhanced the effect of doxorubicin-mediated p53 and p21 upregulation; also recorded: able to enhance the induction of p53 and p21 | expression of p53 and downstream targets with low-dose doxorubicin (Western blot) [2]: increased the expression of p53 and downstream targets | expression of p53 and downstream targets p21 and MDM2 (Western blot) [2]: expression of p53 and downstream targets p21 and MDM2 was increased | p53 expression (Western blot) [3]: able to increase p53 expression | p53 and p21 expression after low-dose doxorubicin treatment (Western blot) [3]: further increased p53 and p21 expression | expression of p53 and downstream targets with low-dose doxorubicin (Western blot) [3]: increased the expression of p53 and downstream targets | expression of p53 (Western blot) [3]: expression of p53 was increased relative to controls | MCF7 cell colony formation [4]: able to inhibit MCF7 cell colony formation; also recorded: able to suppress colony formation of MCF7 breast cancer cells; also recorded: decreased colony formation | inhibition of colony formation by low-dose doxorubicin [4]: enhanced the inhibition of colony formation by low-dose doxorubicin; also recorded: led to decreased colony formation | colony formation in MCF7 cells [4]: inhibited colony formation | tumor cell colony formation [5]: successful at inhibiting tumor cell colony formation | colony formation in U20S cells [6]: inhibited colony formation | colony formation in MIA-PaCa-2 pancreatic cancer cells [7]: inhibited colony formation

AAAAAAGAAAAAAAA (chemistry not given here) [14A/G]
level of p53 (Western blot) [1]: level of p53 was increased | RKO tumor cell colony formation [8]: inhibited RKO tumor cell colony formation after 24 hours more than the M3 control oligonucleotide did

QYPPATYDQYPYAASPATAASFVGYSYPAAVPQALSAAAP [RBM38]
p53 expression (Western blot) [2]: able to increase p53 expression | protein expression of p53 and downstream targets p21 and MDM2 (Western blot) [2]: increased protein expression of p53 and the downstream targets p21 and mouse double minute 2 homolog (MDM2); also recorded: increasing p53 protein levels; also recorded: induced p53 and downstream targets p21 and MDM2 | p53 and p21 expression after low-dose doxorubicin treatment (Western blot) [2]: further increased p53 and p21 expression | doxorubicin-mediated p53 and p21 upregulation (Western blot) [2]: enhanced the effect of doxorubicin-mediated p53 and p21 upregulation; also recorded: able to enhance the induction of p53 and p21 | expression of p53 and downstream targets with low-dose doxorubicin (Western blot) [2]: increased the expression of p53 and downstream targets | expression of p53 and downstream targets p21 and MDM2 (Western blot) [2]: expression of p53 and downstream targets p21 and MDM2 was increased | p53 expression (Western blot) [3]: able to increase p53 expression | p53 and p21 expression after low-dose doxorubicin treatment (Western blot) [3]: further increased p53 and p21 expression | expression of p53 and downstream targets with low-dose doxorubicin (Western blot) [3]: increased the expression of p53 and downstream targets | expression of p53 (Western blot) [3]: expression of p53 was increased relative to controls | MCF7 cell colony formation [4]: able to inhibit MCF7 cell colony formation; also recorded: able to suppress colony formation of MCF7 breast cancer cells; also recorded: decreased colony formation | inhibition of colony formation by low-dose doxorubicin [4]: enhanced the inhibition of colony formation by low-dose doxorubicin | tumor cell colony formation [5]: successful at inhibiting tumor cell colony formation

YPYAARPA [Pep8-SR, Pep8 mutant]
p53 protein expression compared to Pep8 (Western blot) [3]: stronger ability to induce p53 protein expression compared to Pep8

YPYAASPA [peptide-8]
induction of p53 (Western blot) ([2]; MCF7 cells 375 nM, 50 nM or 150 nM, RKO cells 150 nM (FIG. 16)): stronger induction of p53 than the longer RBM38 and eIF4E peptides; also recorded: increases p53 expression | p53 and p21 expression after low-dose doxorubicin treatment (Western blot) [2]: further increased p53 and p21 expression | doxorubicin-mediated p53 and p21 upregulation (Western blot) [2]: enhanced the effect of doxorubicin-mediated p53 and p21 upregulation; also recorded: able to enhance the induction of p53 and p21 | expression of p53 and downstream targets with low-dose doxorubicin (Western blot) [2]: increased the expression of p53 and downstream targets | p53 protein levels (Western blot) ([3]; 50 nM peptide with 1 μM PEP1, 18 hours (FIG. 32A)): could induce p53 protein levels | p53 and p21 expression after low-dose doxorubicin treatment (Western blot) [3]: further increased p53 and p21 expression | expression of p53 and downstream targets with low-dose doxorubicin (Western blot) [3]: increased the expression of p53 and downstream targets | inhibition of colony formation by low-dose doxorubicin [4]: enhanced the inhibition of colony formation by low-dose doxorubicin; also recorded: led to decreased colony formation | colony formation in MCF7 cells [4]: inhibited colony formation | colony formation in U20S cells [6]: inhibited colony formation | colony formation in MIA-PaCa-2 pancreatic cancer cells [7]: inhibited colony formation

AAAGAAAAAAGAAAAAAAA (listed as DNA, chemistry not given here) [18T-AS-19]
level of p53 (Western blot) [1]: level of p53 was increased

AAAGAAAAAAGAAAA (listed as DNA, chemistry not given here) [18T-AS-15]
level of p53 (Western blot) [1]: level of p53 was increased

AAAAAAAAAAAAAAAAAA (listed as DNA, chemistry not given here) [15A]
level of p53 (Western blot) [1]: level of p53 was increased | RKO tumor cell colony formation [8]: inhibited RKO tumor cell colony formation after 24 hours more than the M3 control oligonucleotide did

YPYAAKPA [Pep8-SK, Pep8 mutant]
p53 protein expression compared to Pep8 (Western blot) [3]: stronger ability to induce p53 protein expression compared to Pep8

AAAGAAAAAAGAAAAAAAAAAAAAAAAAAGAAAAAGAA (listed as DNA, chemistry not given here) [18T-AS]
level of p53 (Western blot) [1]: level of p53 was increased

From patent publication US11505574B2, “Modulation of P53 for the treatment of cancer” (THE REGENTS OF THE UNIVERSITY OF CALIFORNIA, priority 2016, dated 2022)
